{"source": "ChEMBL document CHEMBL3596141", "about": "“Isolation and Structure Elucidation of Fujikurins A-D: Products of the PKS19 Gene Cluster in Fusarium fujikuroi” (J Nat Prod, 2015)", "tested_on": "HepG2", "experiment": "Cytotoxicity against human HepG2 cells assessed as cell viability up to 100 uM after 48 hrs by CCK-8 assay", "type": "functional, cell-based", "note": "The source made the active and inactive calls. The calls are words filed in the database; no cut-off is given here."}
{"smiles": "CCC(C)C(=O)C1=C(O)C(C)C(C)OC1=O", "note": "(stereo unspecified)", "values": [{"measurement": "Activity", "value": "inactive"}]}
